Measured values published in patent publication US20110082114A1, “Methods of Treating Aneurysmal Dilatation, Blood Vessel Wall Weakness and Specifically Abdominal Aortic and Thoracic Aneurysm Using Matrix Metalloprotease-2 Inhibitors” (SYMPHONY EVOLUTION, INC., priority 2009, published 2011).
Values belong to the molecule of their own block, whether it stands above or below them.

Tests used:
[1] = system: C57/B16 mice, elastase-perfused abdominal aorta; experiment: Elastase-perfusion mouse model of AAA, aortic diameter; format: in vivo; settings: for mean % ΔAD (increase in aortic diameter at 2 weeks): daily gavage in Cremophor, Mean±SE
Excerpt: All mice used in the experiment were commercially obtained C57/B16 inbred strain mice. Throughout the experimental course, mice were allowed free access to food and water. Animals were housed in a controlled animal facility, and all mouse care and treatment occurred under approved protocols.
A total of 89 C57/B16 mice were subjected to transient perfusion of the abdominal aorta according to a protocol known in the art. Briefly, after sedation and preparation, the aorta was approached through a midline laparotomy. The infrarenal aorta was dissected and the diameter was measured under physiologic blood pressure. A segment of infrarenal aorta was isolated and a 5 minute perfusion of this segment was performed through an arteriotomy at 100 mmHg with a solution containing type I porcine pancreatic elastase (PPE 0.16 U/mL). All of the experiments were performed with a single PPE preparation derived from the same commercial source and lot.
Following aortic perfusion the arteriotomy was repaired, the laparotomy was closed and the animal was allowed to completely recover before returning to its standard housing.
Following aortic perfusion, animals were placed into one of 5 treatment groups. […] Three different doses of the agent were used, 50 mg/kg/day (n=17), 125 mg/kg/day (n=17), and 250 mg/kg/day (n=18). There were two mice in each group which died following aortic perfusion, and all others were available for analysis. Control animals (n=18) were similarly treated with daily gavage of the Cremophor diluent only. Of these mice, 16 survived the two weeks following aortic perfusion and underwent final aortic measurements and harvest. […] In this group, 4 mice died prior to the two week harvest, and all others were used in the analysis of aneurysm growth.
Two weeks following elastase perfusion, the mice were again anesthetized; the laparotomy incision was reopened and the final aortic diameter was measured in vivo prior to sacrifice. The animals were humanely sacrificed, and circulating blood and the entire perfused segment of aorta was harvested for RNA extraction, protein extraction or histology.

[2] = system: C57/B16 mice, elastase-perfused abdominal aorta; experiment: Elastase-perfusion mouse model of AAA, aortic histology; format: in vivo; settings: 50, 125, 250 mg/kg/day
Description: The aortas from several mice from each experimental group were perfusion fixed with 10% neutral-buffered formalin, removed, and placed in additional formalin for a minimum of 24 hours prior to processing for paraffin embedding. Following paraffin embedding, aortic specimens were cut into 5 μm sections and mounted on glass slides. Each specimen was stained with hematoxylin and eosin to evaluate inflammatory cell infiltration and Accustain® Elastic Stain kit to assess the degree of elastin degradation. Photomicrographs of serial sections were obtained using an Olympus BX60 light microscope equipped with CV12 video capture camera.
Representative aortas from each group were fixed in formalin following aortic harvest and processed into paraffin blocks. During harvest only the maximally dilated segment of the aorta was taken, and serial sections of the block were made to assure that the most dilated segment of aorta was imaged. These maximally dilated segments were stained with Hematoxylin and Eosin stains as well as an elastin highlighting stain (Verhoff-Von Giesen [VVG]).

[3] = molecular target: T1, mADAM-10 or hADAM-10 (UniProt O14672); experiment: ADAM-10 enzyme assay (fluorogenic peptide cleavage); format: biochemical;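 note: fluorescence from cleavage of a quenched 10-residue DABCYL/EDANS peptide by 5 nM enzyme in HEPES pH 8.0 buffer, 16 hr at room temperature, compounds serially diluted 100 µM to 0.5 nM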
T1 sequence (O14672 1-748): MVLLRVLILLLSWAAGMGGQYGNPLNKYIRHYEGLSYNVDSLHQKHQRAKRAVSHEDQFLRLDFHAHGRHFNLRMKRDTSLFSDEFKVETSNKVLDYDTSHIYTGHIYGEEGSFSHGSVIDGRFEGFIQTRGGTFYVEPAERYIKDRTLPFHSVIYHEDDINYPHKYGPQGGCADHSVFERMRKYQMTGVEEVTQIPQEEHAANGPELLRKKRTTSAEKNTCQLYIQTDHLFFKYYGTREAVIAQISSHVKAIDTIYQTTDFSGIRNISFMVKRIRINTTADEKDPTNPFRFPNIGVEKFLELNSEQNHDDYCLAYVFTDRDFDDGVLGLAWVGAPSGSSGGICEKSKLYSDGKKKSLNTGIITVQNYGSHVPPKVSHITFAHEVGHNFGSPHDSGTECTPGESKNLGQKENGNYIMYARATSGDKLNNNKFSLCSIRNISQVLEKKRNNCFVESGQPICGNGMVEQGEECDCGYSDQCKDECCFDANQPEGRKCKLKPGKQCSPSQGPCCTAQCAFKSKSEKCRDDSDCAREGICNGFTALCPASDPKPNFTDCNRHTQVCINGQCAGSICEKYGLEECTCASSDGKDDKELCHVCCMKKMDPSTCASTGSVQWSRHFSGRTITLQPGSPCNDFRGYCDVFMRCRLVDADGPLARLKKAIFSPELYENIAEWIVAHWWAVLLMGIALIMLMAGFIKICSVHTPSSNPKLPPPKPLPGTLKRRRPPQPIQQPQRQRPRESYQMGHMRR
Description: mADAM-10 or hADAM-10 activity was measured as the ability to cleave a 10-residue peptide (DABCYL-Leu-Leu-Ala-Gln-Lys-*-Leu-Arg-Ser-Ser-Arg-EDANS). […] Enzyme was diluted to a final active concentration of 5 nM in Buffer A (50 mM HEPES 8.0, 100 mM NaCl, 1 mM CaCl2 and 0.01% NP-40). Serial dilutions for compounds were performed ranging from 100 μM to 0.5 nM using a Beckman Biomek 2000 in polypropylene plates (Greiner). […] This reaction was incubated for 16 hr at RT and fluorescence was read using identical conditions.

SMILES: COCCOC(=O)N1CCN(S(=O)(=O)c2cc(F)c(Oc3ccc(Cl)cc3)c(F)c2)[C@@H](C(=O)NO)C1 [Entry 15]
mean % ΔAD (increase in aortic diameter at 2 weeks) ([1]; 125 mg/kg/day): 129.3±5.1% | animals which did not develop aneurysms ([1]; 250 mg/kg/day, daily gavage): 12% | mean % ΔAD (increase in aortic diameter at 2 weeks) ([1]; 250 mg/kg/day): 119.2±14.1% | aortic diameters at harvest compared with control animals ([1]; all doses (50, 125, 250 mg/kg/day)): significantly smaller than control animals | animals that developed maximal diameters greater than 100% ([1]; low (50 mg/kg/day) and intermediate (125 mg/kg/day) dose groups): All animals | mean % ΔAD (increase in aortic diameter at 2 weeks) ([1]; lowest dose (50 mg/kg/day)): 140.4±3.2% | degree of elastin damage and inflammatory cell inflammation versus dose [2]: inversely correlated with the dose of the agent administered

SMILES: C[C@H]1c2cccc(O)c2C(=O)C2=C(O)[C@]3(O)C(=O)C(C(N)=O)=C(O)[C@@H](N(C)C)[C@@H]3[C@@H](O)[C@@H]21 [doxycycline, reference compound]
animals not reaching the threshold designated for aneurysms (% ΔAD greater than 100%) ([1]; doxycycline in drinking water, 100 mg/kg/day): 13% | mean % ΔAD (percentage increase in aortic diameter at 2 weeks compared to baseline) ([1]; doxycycline in drinking water, 100 mg/kg/day, n=15, Mean±SE): 112.2±2.0%

SMILES: O=C(NO)[C@H]1CN(C(=O)c2ccc(-c3ccccc3)cc2)CCN1S(=O)(=O)c1cc(F)c(Oc2ccc(Cl)cc2)c(F)c1 [Entry 51]
IC50 [3]: 50 to 1000 nM

More lines, now with the values ahead:

IC50 [3]: < 50 nM
SMILES: CN1CCN(C(=O)N2CCN(S(=O)(=O)c3cc(F)c(Oc4ccc(Cl)cc4)c(F)c3)[C@@H](C(=O)NO)C2)CC1 [Entry 16]

IC50 [3]: < 50 nM
SMILES: O=C(NO)[C@H]1CN(C(=O)CN2CCOCC2)CCN1S(=O)(=O)c1cc(F)c(Oc2ccc(Cl)cc2)c(F)c1 [Entry 25]

IC50 [3]: < 50 nM
SMILES: CCOC(=O)N1CCN(S(=O)(=O)c2cc(F)c(Oc3ccc(F)cc3)c(F)c2)[C@@H](C(=O)NO)C1 [Entry 13]

IC50 [3]: < 50 nM
SMILES: O=C(NO)[C@H]1CN(C(=O)c2cccnc2)CCN1S(=O)(=O)c1cc(F)c(Oc2ccc(Cl)cc2)c(F)c1 [Entry 59]

IC50 [3]: < 50 nM
SMILES: CN(C)CCS(=O)(=O)N1CCN(S(=O)(=O)c2cc(F)c(Oc3ccc(Cl)cc3)c(F)c2)[C@@H](C(=O)NO)C1 [Entry 54]
